Patent publication US11173177B2, “Compounds for treatment of lipoprotein metabolism disorders” (Aarhus Universitet, priority 2016, dated 2021)
“Also recorded” adds a separate entry of the source.

Assays:
[1] = target: PCSK9; experiment: BIACORE analysis of PCSK9 binding to heparin-albumin or albumin sensor chips; parameters: species or system human
Experimental: BIACORE analysis using sensor chips coupled with either albumin (Sigma A4503) or heparin-albumin (Sigma H0403) were used to evaluate the interaction between PCSK9 and heparin. […] An interference assay using BIACORE analysis was implemented to assess the binding between compound (X) and PCSK9. Solutions of 100 nM PCSK9 was incubated with increasing concentrations of compound (X) (0 nM, 10 nM, 100 nM, 1 μM and 10 μM), the solutions were then infused over the sensor chip coupled with heparin-albumin.

[2] = system: LDLR in HepG2 cells; experiment: LDLR levels in HepG2 cells by Western blotting and densitometry; format: cell-based, human
[3] = system: HepG2 cells; experiment: Uptake of Bodipy-labeled LDL particles in HepG2 cells; format: cell-based, human; details: suramin 200 μg/ml overnight, then 4 hours 10 ng/ml Bodipy-LDL
Experimental: FIG. 12: Bar graphs showing the relative fluorescence signal in HepG2 cells after overnight incubation with suramin (200 μg/ml) following 4 hours incubation with 10 ng/ml LDL particles labeled with fluorescence dye Bodipy. Inhibition of PCSK9 with suramin increases the uptake of LDL two-fold.

[4] = target: PCSK9; experiment: Microscale Thermophoresis (MST) binding to PCSK9; parameters: species or system human; details: 100 nM labelled PCSK9, PBS+0.05% Tween-20; for Kd: read-out: KD (affinity for PCSK9, MST)
Experimental: Equilibrium binding affinities between PCSK9 and ligands (suramin, dextran sulfate 5000, dextran 5000, pentosan sulfate and S-dC-36) were assessed using Microscale Thermophoresis (MST) (Jerabek-Willemsen et al., 2011). PCSK9 was labeled using the MO-L003 Monolith Blue-NHS labeling kit (NanoTemper Technologies) and a labeling efficiency of 1:1 molar ratio of protein to dye was achieved. PCSK9 was applied at a final concentration of 100 nM. The unlabeled binding partner was titrated in 1:1 dilutions (in PBS+0.05% Tween-20) where the highest concentrations were 15.4 mM for suramin, 2.3 mM for dextran sulfate 5000, 2.3 mM for dextran 5000, 16.3 mM for pentosan sulfate and 250 μM for S-dC-36. MST measurements were performed in standard-treated capillaries (NanoTemper Technologies) on a Monolith NT.115 instrument (NanoTemper Technologies) using 20% LED and 80% MST power. Laser on and off times were 5 s and 35 s, respectively. Negative controls were performed using 100 nM of labelled PCSK9 in MST buffer in all 16 capillaries under the same conditions as mentioned above. Binding curves were obtained from the temperature-jump phase at 80% MST power for suramin, dextran sulfate 5000 and S-dC-36; and from the thermophoresis+temperature-jump phase at 80% MST power for pentosan sulfate. For each binding partner, the sigmoidal dose-response curves were fitted with GraphPad Prism 6 to yield an average KD value.

[5] = system: liver LDLR; experiment: Liver LDLR levels in mice after intravenous PCSK9 injection (Western blot); format: in vivo
Experimental: To test the effect of enzymatic removal of heparan sulfate GAGs on PCSK9 activity in vivo 10-12 week-old male BALB6/cJRj mice were infused with heparinase I (30 U) administered through a tail vein catheter 5 min prior injection of PCSK9 (10 μg). In control mice the heparinase injection and/or the PCSK9 injection were replaced with an injection of 0.9% saline. During heparinase infusion, mice were lightly anaesthetized with isoflurane continuously administered through a mask.
Mice (BALB6/cJRj) were subjected to a single intravenous administration (tail vein) of 10 μg human recombinant PCSK9 alone or in combination with heparin (50 U). One hour post injection mice were sacrificed and liver tissues were collected.
Mice (BALB6/cJRj) were subjected to a single intravenous (tail vein) administration of 3.2 μg compound (X) 60 minutes prior injection with PCSK9 (10 μg). PCSK9 induced degradation of liver LDLR was assessed 60 min post PCSK9 injection by Western blotting and quantified by densitometry (FIG. 16 C). Control mice were injected with NaCl or control inhibitor Evolocumab (200 μg), commercially available PCSK9 inhibitory monoclonal antibody (Amgen). LDLR levels were calculated with respect to LDLR level in mice injected with NaCl alone.

[6] = system: LDLR in HepG2 cells; experiment: LDLR levels in HepG2 cells by Western blotting and densitometry; format: cell-based, human; details: for cellular LDLR, plateau compared to control: dose-dependent increase
Experimental: In the heparin mimetic class of modified polysaccharides compounds dextran sulfate (FIG. 9 A-B) and pentosan (FIG. 9 D-E) were tested in a HepG2 based in vitro cell assay. After overnight incubation LDLR levels were evaluated by Western blotting showing a concentration dependent increase of LDLR upon treatment with dextran sulfate (0-200 μg/ml) with up to 3-fold up regulation of LDLR.
Control cells were incubated without additives (negative control) or 500 μg/ml heparin (positive control). LDLR levels were calculated with respect to the level found in lysate of HepG2 cells incubated without additives.
HepG2 cells were incubated with 0-200 μg/ml of heterogeneously sulfated hexamer or 18-mer oligosaccharides containing on average 1,3 sulfates per disaccharide. After over night incubation cells were harvested and the cellular level of LDLR was analyzed by Western blotting (FIG. 17 A) and quantified by densitometry (FIG. 17 B).

[7] = oral dose; cited from earlier work
[8] = system: PCSK9; experiment: Heparin-sepharose binding assay (free PCSK9 by ELISA); parameters: species or system human; details: 500-250 μg/ml, PCSK9 1 μg/ml, over night 4° C.
Experimental: Compound (X) inhibition of PCSK9 binding to Heparin/Heparan sulfate was tested in a Heparin-sepharose binding assay. Heparin-sepharose beads (2 μl) were incubated with PCSK9 (1 μg/ml) with increasing concentrations of compound (X) (0-500 μg/ml) in a total volume of 150 μl 10 mM NaH2PO4. After over night rotation at 4° C., beads were pelleted and the concentration of non-precipitated PCSK9 (free PCSK9) in supernatant was evaluated by ELISA. The concentration of free PCSK9 in each sample was normalised to the PCSK9 level in a sample without Heparin-sepharose beads (input control). As positive control was included a sample with soluble heparin (5 mg/ml) (FIG. 16 A).
Sucrose octasulfate (FIG. 21A) inhibition of PCSK9 binding to Heparin/Heparan sulfate was tested in a Heparin-sepharose binding assay. Heparin-sepharose beads (2 μl) were incubated with PCSK9 (1 μg/ml) and increasing concentrations of sucrose octasulfate (0-500 μg/ml) in a total volume of 150 μl 10 mM NaH2PO4. After over night rotation at 4° C., beads were pelleted and the concentration of non-precipitated PCSK9 (free PCSK9) in supernatant was evaluated by ELISA). Percent free PCSK9 was calculated with respect to the PCSK9 concentration in a sample without Heparin-sepharose beads (input control) (FIG. 21B).

[9] = system: cell surface PCSK9; experiment: Surface PCSK9 immunostaining of non-permeabilized HepG2 cells stably expressing PCSK9; format: cell-based, human; details: heparinase I 1 h at 37° C.
Experimental: We speculated that HSPG might be involved in the capture of PCSK9. Thus, we treated human hepatocyte-derived HepG2 cells stably expressing PCSK9 with heparinase I. The enzyme heparinase I cleaves heparan sulfate GAG chains at the 1,4 O-linkage between uronic acid and N-acetyl-D-glucosamine, thereby removing cell surface heparan sulfate chains.
HepG2 cells stably transfected with PCSK9 were seeded at 50.000 cells per coverslip and incubated overnight before addition of heparinase I (Sigma Aldrich/H2519) in PBS (0,0002 UN/ml) or PBS alone. Cells were incubated for 1 h. at 37° C., before fixation in 4% paraformaldehyd and immunostaining of non-permeabilized cells with primary and secondary antibodies. Nuclei were visualized with Hoechst dye (Sigma Aldrich). Images were acquired on a Zeiss LSM780.

In the case of “heparin-albumin: heparin-albumin (Sigma H0403) coupled to sensor chip”, the Kd ([1]; Example 20 text, read-out: affinity constant of PCSK9 binding) is reported as 0.0007 µM.

With “albumin: albumin (Sigma A4503) control sensor chip” the “PCSK9 binding to control sensor chip” value ([1]; sensor chip coupled with albumin) was “no binding was observed”.

With “phosphorothioate oligodeoxycytidine [S-dC-36]” the “cellular LDLR levels / PCSK9 inhibitory effect” value ([2]; 0-5.0 μM, 24 hour) was “potent inhibitory effects; also recorded: concentration dependent increase in cellular receptor levels”.

With `Cc1ccc(C(=O)Nc2ccc(S(=O)(=O)O)c3cc(S(=O)(=O)O)cc(S(=O)(=O)O)c23)cc1NC(=O)c1cccc(NC(=O)Nc2cccc(C(=O)Nc3cc(C(=O)Nc4ccc(S(=O)(=O)O)c5cc(S(=O)(=O)O)cc(S(=O)(=O)O)c45)ccc3C)c2)c1` [suramin] the “uptake of fluorescently labelled LDL particles” value [3] was “increased cellular uptake of fluorescently labelled LDL particles; also recorded: two-fold”, the Kd [4] was 190 µM and the “LDLR level compared with cells incubated with statins” value ([2]; 100 μM, 24 and 48 hours, vs mevastatin and simvastatin) was “higher level of LDLR”. For the same molecule, the “increase in LDLR” value ([2]; suramin 0-200 μg/ml, 24 hour) was “up to fifteen-fold increase in LDLR” and the “level of liver LDLR compared to mice injected with PCSK9 alone” value ([5]; co-injected with PCSK9 (10 μg), heparin 50 U or suramin 300 μg, 1 hour) was “significantly higher level of LDLR”.

In the case of dextran sulfate, the Kd [4] is reported as 180 µM, the “up regulation of LDLR” value ([6]; 0-200 μg/ml, overnight) is reported as “up to 3 fold” and the “cellular level of LDLR” value ([6]; 200 μg/ml, 24 hour) is reported as “potently increase the cellular level of LDLR”. For the same molecule, the “cellular LDLR, plateau compared to control” value [6] was “around 400%”.

With dextran the “KD (affinity for PCSK9, MST)” value [4] was “no affinity for PCSK9”.

For pentosan sulfate, the Kd [4] was 381 µM, the “increase in LDLR” value ([6]; 50-200 μg/ml, 24 hour / overnight) was 4 fold and the “cellular LDLR, plateau compared to control” value [6] was “around 400%”. The “absorption from the digestive tract, median time after ingestion” value [7] was 2 h.

In the case of `O=S(=O)(O)OC[C@H]1O[C@@](COS(=O)(=O)O)(O[C@H]2O[C@H](COS(=O)(=O)O)[C@@H](OS(=O)(=O)O)[C@H](OS(=O)(=O)O)[C@H]2OS(=O)(=O)O)[C@@H](OS(=O)(=O)O)[C@@H]1OS(=O)(=O)O` [Sucrose octasulfate], the “inhibition of PCSK9 precipitation with Heparin-sepharose” value [8] is reported as “inhibited PCSK9 precipitation with Heparin-sepharose as well as 5 mg/ml soluble heparin”.

B1: heparinase I: enzyme that cleaves heparan sulfate GAG chains (Sigma Aldrich/H2519) (protein, UniProt Q05819 22-384, looked up)
Heparin lyase I: QQKKSGNIPYRVNVQADSAKQKAIIDNKWVAVGINKPYALQYDDKLRFNGKPSYRFELKAEDNSLEGYAAGETKGRTELSYSYATTNDFKKFPPSVYQNAQKLKTVYHYGKGICEQGSSRSYTFSVYIPSSFPDNATTIFAQWHGAPSRTLVATPEGEIKTLSIEEFLALYDRMIFKKNIAHDKVEKKDKDGKITYVAGKPNGWKVEQGGYPTLAFGFSKGYFYIKANSDRQWLTDKADRNNANPENSEVMKPYSSEYKTSTIAYKMPFAQFPKDCWITFDVAIDWTKYGKEANTILKPGKLDVMMTYTKNKKPQKAHIVNQQEILIGRNDDDGYYFKFGIYRVGNSTVPVTYNLSGYSETAR
In the case of B1, the “PCSK9 induced degradation of liver LDLR” value ([5]; heparinase I (30 U) infused 5 min prior PCSK9 (10 μg), 1 hour) is reported as “completely protected; also recorded: completely inhibits” and the “intensity of surface PCSK9 staining” value [9] is reported as “marked decrease in the intensity of surface PCSK9 staining”.

B2: Evolocumab: commercially available PCSK9 inhibitory monoclonal antibody (Amgen) (antibody, chains of the INN, looked up, V domains shown)
VH: EVQLVQSGAEVKKPGASVKVSCKASGYTLTSYGISWVRQAPGQGLEWMGWVSFYNGNTNYAQKLQGRGTMTTDPSTSTAYMELRSLRSDDTAVYYCARGYGMDVWGQGTTVTVSS
VL: ESALTQPASVSGSPGQSITISCTGTSSDVGGYNSVSWYQQHPGKAPKLMIYEVSNRPSGVSNRFSGSKSGNTASLTISGLQAEDEADYYCNSYTSTSMVFGGGTKLTVL
In the case of B2, the “decrease of liver LDLR level after PCSK9 injection” value ([5]; inhibitor i.v. 60 min prior PCSK9 (10 μg), compound (X) 0.13 mg/kg, Evolocumab 8 mg/kg, PCSK9 without inhibitor: 50% decrease) is reported as “no decrease was observed”.
